# According to PubChem BioAssay (NCI):
#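 Cells were grown in 96-well plates and exposed to each compound for 48 hours at five concentrations; endpoints were interpolated linearly between bracketing concentrations, or set to the highest concentration if not reached. TGI: concentration producing complete growth inhibition.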
# How the values were obtained:
# Test in all cases: NCI-60 cell line screen, 48 h
# 786-0 renal = system: 786-0 renal
# A498 renal = system: A498 renal
# ACHN renal = system: ACHN renal
# BT-549 breast = system: BT-549 breast
# CAKI-1 renal = system: CAKI-1 renal
# COLO 205 colon = system: COLO 205 colon
# DU-145 prostate = system: DU-145 prostate
# EKVX NSCLC = system: EKVX NSCLC
# HCC-2998 colon = system: HCC-2998 colon
# HCT-116 colon = system: HCT-116 colon
# HCT-15 colon = system: HCT-15 colon
# HL-60(TB) leukemia = system: HL-60(TB) leukemia
# HOP-62 NSCLC = system: HOP-62 NSCLC
# HS 578T breast = system: HS 578T breast
# HT29 colon = system: HT29 colon
# IGROV1 ovarian = system: IGROV1 ovarian
# K-562 leukemia = system: K-562 leukemia
# KM12 colon = system: KM12 colon
# LOX IMVI melanoma = system: LOX IMVI melanoma
# MALME-3M melanoma = system: MALME-3M melanoma
# MCF7 breast = system: MCF7 breast
# MDA-MB-231 breast = system: MDA-MB-231 breast
# MDA-MB-435 = system: MDA-MB-435
# MDA-N = system: MDA-N
# MOLT-4 leukemia = system: MOLT-4 leukemia
# NCI-H226 lung = system: NCI-H226 lung
# NCI-H23 lung = system: NCI-H23 lung
# NCI-H460 lung = system: NCI-H460 lung
# NCI-H522 lung = system: NCI-H522 lung
# NCI/ADR-RES ovarian = system: NCI/ADR-RES ovarian
# OVCAR-3 ovarian = system: OVCAR-3 ovarian
# OVCAR-4 ovarian = system: OVCAR-4 ovarian
# OVCAR-5 ovarian = system: OVCAR-5 ovarian
# OVCAR-8 ovarian = system: OVCAR-8 ovarian
# PC-3 prostate = system: PC-3 prostate
# RPMI-8226 leukemia = system: RPMI-8226 leukemia
# RXF 393 renal = system: RXF 393 renal
# SF-268 CNS = system: SF-268 CNS
# SF-295 CNS = system: SF-295 CNS
# SK-MEL-2 melanoma = system: SK-MEL-2 melanoma
# SK-MEL-28 melanoma = system: SK-MEL-28 melanoma
# SK-MEL-5 melanoma = system: SK-MEL-5 melanoma
# SN12C renal = system: SN12C renal
# SNB-19 CNS = system: SNB-19 CNS
# SNB-75 CNS = system: SNB-75 CNS
# SR leukemia = system: SR leukemia
# SW-620 colon = system: SW-620 colon
# T-47D breast = system: T-47D breast
# TK-10 renal = system: TK-10 renal
# U251 CNS = system: U251 CNS
# UACC-257 melanoma = system: UACC-257 melanoma
# UACC-62 melanoma = system: UACC-62 melanoma
# UO-31 renal = system: UO-31 renal
# A549 NSCLC = system: A549 NSCLC
# CCRF-CEM leukemia = system: CCRF-CEM leukemia
# M14 melanoma = system: M14 melanoma
# SK-OV-3 ovarian = system: SK-OV-3 ovarian
smiles,measurement,setting,value
O=C1/C(=C/c2ccc(Br)s2)NC(=S)N1CN1CCOCC1,TGI,786-0 renal,> 100 µM
same,TGI,A498 renal,> 100 µM
same,TGI,ACHN renal,> 100 µM
same,TGI,BT-549 breast,> 100 µM
same,TGI,CAKI-1 renal,66.5 µM
same,TGI,COLO 205 colon,87.9 µM
same,TGI,DU-145 prostate,> 100 µM
same,TGI,EKVX NSCLC,> 100 µM
same,TGI,HCC-2998 colon,> 100 µM
same,TGI,HCT-116 colon,> 100 µM
same,TGI,HCT-15 colon,> 100 µM
same,TGI,HL-60(TB) leukemia,62.6 µM
same,TGI,HOP-62 NSCLC,> 100 µM
same,TGI,HS 578T breast,> 100 µM
same,TGI,HT29 colon,> 100 µM
same,TGI,IGROV1 ovarian,> 100 µM
same,TGI,K-562 leukemia,99.2 µM
same,TGI,KM12 colon,> 100 µM
same,TGI,LOX IMVI melanoma,61.4 µM
same,TGI,MALME-3M melanoma,> 100 µM
same,TGI,MCF7 breast,52.8 µM
same,TGI,MDA-MB-231 breast,> 100 µM
same,TGI,MDA-MB-435,> 100 µM
same,TGI,MDA-N,> 100 µM
same,TGI,MOLT-4 leukemia,> 100 µM
same,TGI,NCI-H226 lung,> 100 µM
same,TGI,NCI-H23 lung,> 100 µM
same,TGI,NCI-H460 lung,> 100 µM
same,TGI,NCI-H522 lung,> 100 µM
same,TGI,NCI/ADR-RES ovarian,> 100 µM
same,TGI,OVCAR-3 ovarian,> 100 µM
same,TGI,OVCAR-4 ovarian,> 100 µM
same,TGI,OVCAR-5 ovarian,> 100 µM
same,TGI,OVCAR-8 ovarian,> 100 µM
same,TGI,PC-3 prostate,> 100 µM
same,TGI,RPMI-8226 leukemia,43 µM
same,TGI,RXF 393 renal,59.7 µM
same,TGI,SF-268 CNS,> 100 µM
same,TGI,SF-295 CNS,> 100 µM
same,TGI,SK-MEL-2 melanoma,> 100 µM
same,TGI,SK-MEL-28 melanoma,> 100 µM
same,TGI,SK-MEL-5 melanoma,> 100 µM
same,TGI,SN12C renal,> 100 µM
same,TGI,SNB-19 CNS,> 100 µM
same,TGI,SNB-75 CNS,> 100 µM
same,TGI,SR leukemia,55.2 µM
same,TGI,SW-620 colon,> 100 µM
same,TGI,T-47D breast,> 100 µM
same,TGI,TK-10 renal,> 100 µM
same,TGI,U251 CNS,> 100 µM
same,TGI,UACC-257 melanoma,> 100 µM
same,TGI,UACC-62 melanoma,48.6 µM
same,TGI,UO-31 renal,> 100 µM
CC(C)(CO)N1C(=O)c2ccccc2C1(O)c1ccc(Cl)cc1 (configuration not stated),TGI,786-0 renal,> 100 µM
same,TGI,A549 NSCLC,> 100 µM
same,TGI,ACHN renal,> 100 µM
same,TGI,BT-549 breast,> 100 µM
same,TGI,CAKI-1 renal,> 100 µM
same,TGI,CCRF-CEM leukemia,> 100 µM
same,TGI,COLO 205 colon,> 100 µM
same,TGI,DU-145 prostate,> 100 µM
same,TGI,EKVX NSCLC,> 100 µM
same,TGI,HCC-2998 colon,> 100 µM
same,TGI,HCT-116 colon,> 100 µM
same,TGI,HCT-15 colon,> 100 µM
same,TGI,HL-60(TB) leukemia,> 100 µM
same,TGI,HOP-62 NSCLC,> 100 µM
same,TGI,HS 578T breast,> 100 µM
same,TGI,HT29 colon,> 100 µM
same,TGI,IGROV1 ovarian,> 100 µM
same,TGI,K-562 leukemia,> 100 µM
same,TGI,KM12 colon,> 100 µM
same,TGI,M14 melanoma,> 100 µM
same,TGI,MALME-3M melanoma,> 100 µM
same,TGI,MCF7 breast,> 100 µM
same,TGI,MDA-MB-231 breast,> 100 µM
same,TGI,MDA-MB-435,> 100 µM
same,TGI,MDA-N,> 100 µM
same,TGI,MOLT-4 leukemia,> 100 µM
same,TGI,NCI-H226 lung,> 100 µM
same,TGI,NCI-H23 lung,> 100 µM
same,TGI,NCI-H460 lung,> 100 µM
same,TGI,NCI-H522 lung,> 100 µM
same,TGI,NCI/ADR-RES ovarian,> 100 µM
same,TGI,OVCAR-3 ovarian,> 100 µM
same,TGI,OVCAR-4 ovarian,> 100 µM
same,TGI,OVCAR-5 ovarian,> 100 µM
same,TGI,OVCAR-8 ovarian,> 100 µM
same,TGI,PC-3 prostate,> 100 µM
same,TGI,RPMI-8226 leukemia,> 100 µM
same,TGI,RXF 393 renal,> 100 µM
same,TGI,SF-268 CNS,> 100 µM
same,TGI,SF-295 CNS,> 100 µM
same,TGI,SK-MEL-2 melanoma,> 100 µM
same,TGI,SK-MEL-28 melanoma,> 100 µM
same,TGI,SK-MEL-5 melanoma,> 100 µM
same,TGI,SK-OV-3 ovarian,> 100 µM
same,TGI,SN12C renal,> 100 µM
same,TGI,SNB-19 CNS,> 100 µM
same,TGI,SNB-75 CNS,> 100 µM
same,TGI,SW-620 colon,> 100 µM
same,TGI,T-47D breast,> 100 µM
same,TGI,TK-10 renal,> 100 µM
same,TGI,U251 CNS,> 100 µM
same,TGI,UACC-257 melanoma,> 100 µM
same,TGI,UACC-62 melanoma,> 100 µM
same,TGI,UO-31 renal,> 100 µM
